Series [1] addresses T1, hCGRP (human calcitonin gene-related peptide) receptor (Homo sapiens, UniProt O60894+Q16602).
T1 construct: Cultured SK-N-MC neuroblastoma cells that endogenously express the hCGRP receptor (ATCC); host or cells: SK-N-MC neuroblastoma cells
The experiment in a line: Inhibition of cAMP production by CGRP receptor antagonists in SK-N-MC cells (HTRF). The conditions noted are these: 0.8 nM human CGRP challenge, agonist-corrected IC50, mean±SEM, n=11, read-out: Kb measured at human CGRP. It is filed as cell-based. The source says: Inhibition of cAMP Production by CGRP Receptor Antagonists
The hCGRP (human calcitonin gene-related peptide) receptor is functionally coupled to the Gas proteins. Stimulation of hCGRP results in an increased synthesis of intracellular cAMP and can be blocked by the addition of receptor antagonists. Receptor activity is thus a reflection of the amount of cAMP present within cells which can be detected using standard in vitro technology.
Cultured SK-N-MC neuroblastoma cells that endogenously express the hCGRP receptor (ATCC) are grown in Eagle's Minimum essential medium (HYCLONE™) supplemented with 10% heat-inactivated Fetal bovine serum (FBS; GIBCO®), Non-Essential Amino Acids (GIBCO®), 1 mM sodium pyruvate, 2 mM L-glutamine, 100 U/mL of penicillin, and 10 μg/mL of streptomycin to about 70% confluency. […]
The amount of intracellular cAMP is quantitated using HTRF technology (Cisbio) as per vendor instructions. […] The HTRF signal is immediately detected using an ENVISION® plate reader (Perkin-Elmer) to calculate the ratio of fluorescence at […]. […] Relative EC50 values are calculated from the top-bottom range of the concentration response curve using a four-parameter logistic curve fitting program (ACTIVITYBASE® v5.3.1.22 or GENEDATA SCREENER® v12.0.4), and Kb values are estimated as agonist-corrected IC50 values using the equation: Kb=(IC50)/[1+([Agonist]/EC50)]. […]

Series [2] deals with T2, ABCB1, human P-glycoprotein (Pgp) (Homo sapiens, UniProt P08183).
T2 construct: host or cells: MDCKII cells
The experiment in a line: In vitro determination of efflux by Pgp; bi-directional transport across MDCKII cells. It is filed as in vitro ADME. Conditions: MDCKII cells expressing human ABCB1, 5 μM substrate, 60 min, B-A/A-B Papp ratios with/without inhibitor. The procedure:
In Vitro Determination of Efflux by ABCB1, Human P-Glycoprotein (Pgp)
MDCKII cells stably expressing human wild-type ABCB1 (Pgp) are obtained from the Netherlands Cancer Institute (Amsterdam, The Netherlands). MDCK cells are maintained as described previously (Desai et al., Mol Pharm 10:1249-1261, 2013).
The assay is essentially conducted as described previously (Desai et al., Mol Pharm 10:1249-1261, 2013). Transport is measured in both directions across uninhibited and inhibited cell monolayers using a substrate concentration of 5 μM diluted from a 10 mM DMSO stock solution (final DMSO concentration of 0.05%) and a single 60-min time interval. […] The apparent permeability coefficients (Papp) are estimated as the slope of the mass transported per 60 min relative to the total recovered mass. The basal-to-apical (B-A)/apical-to-basal (A-B) Papp ratios are calculated in the absence or presence of inhibitor in each cell line for net efflux ratio (NER). The NER of the compound of Example 1 for efflux by Pgp is determined to be 1.7.

Series [3] is described as follows: Rat plasma and brain homogenate protein binding by equilibrium dialysis. It is filed as in vitro ADME. On the procedure:
Determination of Plasma and Brain Protein Binding:
Rat plasma and brain homogenate protein in vitro binding is determined using equilibrium dialysis, as described elsewhere [Zamek-Gliszczynski et al., J Pharm Sci, 101:1932-1940, 2012]. The results are reported as fraction unbound in plasma (fu,plasma) and brain (fu,brain), which are then utilized to calculate Kp,uu,brain, as described in Table 1. Rat fu,plasma and fu,brain of the compound of Example 1 are determined to be 0.071 and 0.043, respectively.

Series [4] is described as follows: In vivo determination of plasma and brain concentrations and unbound brain-to-plasma partition coefficient (Kp,uu,brain) in rats. Conditions: for concentration at 1 h / concentration at 3 h: male, Sprague-Dawley, oral, 10 mg/kg. On the procedure: In Vivo Determination of Unbound Brain-to-Plasma Partition Coefficient (Kp,uu,brain) in Rats
Unbound brain-to-plasma partition coefficient (Kp,uu,brain) is one of the key pharmacokinetic parameter for evaluating a compound's ability to cross the blood-brain barrier (BBB) (Hammarlund-Udenaes, M.; Friden, M.; Syvanen, S.; Gupta, A. On the Rate and Extent of Drug Delivery to the Brain. Pharm. Res. 2008, 25 (8), 1737-1750).
Animal studies are performed under protocols approved by the Covance Institutional Animal Care and Use Committee. Male Sprague-Dawley rats weighing 250-350 g are obtained from Harlan Sprague Dawley Inc. (Indianapolis, Ind.). Animals have access to food and water ad libitum before and during the study.
Animals each receive 10 mg/kg of the CGRP receptor antagonist compound of Example 1, administered orally in 10 ml/kg of hydroxyethylcellulose 1% w/v/polysorbate 80 0.25% v/v/Antifoam 1510-US 0.05% v/v/in purified water (probe sonicated).
Three animals per time point are used. […] The blood samples are treated with K3-EDTA anticoagulant, and plasma is obtained by centrifugation at 1600 g for 10 minutes. The brain samples are weighed and homogenized, without perfusion. All samples are stored at −70° C. until analysis by LC-MS/MS to determine the concentration of the compound of Example 1 in plasma and brain at each time point.
Kp,uu,brain is calculated for each time point from the expression below where individual components are derived from a combination of in vitro and in vivo measurements carried out as described above:
[formula] where Ctotal,brain, Cu,brain, Ctotal,plasma and Cu,plasma are total and unbound brain and plasma concentrations, and fu,brain and fu,plasma are fractions unbound in brain and plasma, respectively.

Like-named read-outs stand apart in the source and are kept apart here.

T1 sequence (Q16602 23-461): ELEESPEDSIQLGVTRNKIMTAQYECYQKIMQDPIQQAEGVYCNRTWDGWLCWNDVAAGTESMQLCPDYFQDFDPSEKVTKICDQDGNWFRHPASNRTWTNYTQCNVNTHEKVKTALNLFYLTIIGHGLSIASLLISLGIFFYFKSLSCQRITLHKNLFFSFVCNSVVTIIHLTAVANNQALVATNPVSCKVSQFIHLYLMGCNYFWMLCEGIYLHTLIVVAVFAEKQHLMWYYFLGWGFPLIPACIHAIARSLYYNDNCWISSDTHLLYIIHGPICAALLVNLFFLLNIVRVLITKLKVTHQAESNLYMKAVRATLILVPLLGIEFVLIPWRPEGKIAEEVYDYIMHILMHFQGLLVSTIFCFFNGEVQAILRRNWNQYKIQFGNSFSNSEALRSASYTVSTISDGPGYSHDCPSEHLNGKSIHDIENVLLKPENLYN
T1 sequence (O60894 27-148): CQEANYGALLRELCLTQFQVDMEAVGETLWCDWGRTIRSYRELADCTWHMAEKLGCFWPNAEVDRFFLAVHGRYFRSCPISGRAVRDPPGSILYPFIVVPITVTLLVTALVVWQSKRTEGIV
T2 sequence (P08183 whole entry): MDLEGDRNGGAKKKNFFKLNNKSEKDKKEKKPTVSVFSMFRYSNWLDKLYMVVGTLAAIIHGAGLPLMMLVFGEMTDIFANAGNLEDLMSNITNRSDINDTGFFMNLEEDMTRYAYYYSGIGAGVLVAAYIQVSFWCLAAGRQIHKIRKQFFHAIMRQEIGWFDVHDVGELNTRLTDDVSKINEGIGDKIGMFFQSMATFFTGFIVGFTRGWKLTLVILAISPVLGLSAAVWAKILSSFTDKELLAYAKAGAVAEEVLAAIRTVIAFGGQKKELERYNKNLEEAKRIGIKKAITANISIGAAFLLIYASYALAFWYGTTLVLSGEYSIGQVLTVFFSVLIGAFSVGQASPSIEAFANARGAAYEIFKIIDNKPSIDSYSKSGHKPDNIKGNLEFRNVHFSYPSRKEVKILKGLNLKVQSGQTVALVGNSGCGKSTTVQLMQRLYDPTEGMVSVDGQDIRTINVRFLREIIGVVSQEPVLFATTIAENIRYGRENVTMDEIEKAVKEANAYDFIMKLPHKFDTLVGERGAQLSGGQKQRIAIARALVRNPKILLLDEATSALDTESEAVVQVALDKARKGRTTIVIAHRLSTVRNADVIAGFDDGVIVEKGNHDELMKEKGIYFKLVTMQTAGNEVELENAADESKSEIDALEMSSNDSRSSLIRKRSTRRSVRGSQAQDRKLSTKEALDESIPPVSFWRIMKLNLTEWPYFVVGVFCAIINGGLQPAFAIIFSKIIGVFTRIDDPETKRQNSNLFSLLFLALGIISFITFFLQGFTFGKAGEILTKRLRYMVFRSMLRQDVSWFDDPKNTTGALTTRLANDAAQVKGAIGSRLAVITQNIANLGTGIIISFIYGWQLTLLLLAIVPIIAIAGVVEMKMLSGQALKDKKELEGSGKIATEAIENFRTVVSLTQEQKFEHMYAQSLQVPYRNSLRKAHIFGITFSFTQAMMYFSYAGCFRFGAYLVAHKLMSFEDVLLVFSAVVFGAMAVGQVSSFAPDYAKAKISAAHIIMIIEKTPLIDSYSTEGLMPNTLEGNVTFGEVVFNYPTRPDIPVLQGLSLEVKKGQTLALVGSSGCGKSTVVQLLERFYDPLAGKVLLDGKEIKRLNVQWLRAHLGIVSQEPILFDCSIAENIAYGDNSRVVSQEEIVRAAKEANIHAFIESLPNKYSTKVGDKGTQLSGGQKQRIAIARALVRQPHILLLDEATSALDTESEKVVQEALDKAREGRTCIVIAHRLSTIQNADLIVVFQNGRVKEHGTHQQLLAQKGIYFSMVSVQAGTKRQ

For the compound `Cc1cc(OCc2ccc([C@@H](C)[C@]3(C)CC(=O)NC3=O)cc2)cc(C2CC2)n1` [Example 1, (3S)-3-[(1R)-1-[4-[(2-cyclopropyl-6-methyl-4-pyridyl)oxymethyl]phenyl]ethyl]-3-methyl-pyrrolidine-2,5-dione], in series [1], the Kb was 0.57 ± 0.25 nM. Also, in series [2], the “net efflux ratio (NER) for efflux by Pgp” value is reported as 1.7. The fraction unbound in brain (fu,brain) in series [3] (rat brain homogenate) worked out at 0.043. For the same compound, the fraction unbound in series [3] (rat plasma, read-out: fraction unbound in plasma (fu,plasma)) is 0.071. Also, the “Unbound brain conc. (Cu,brain)” value in series [4] (1.0 hr post 10 mg/kg oral dose, male Sprague-Dawley rats, using rat fu,brain 0.043, mean ± SD) turned out to be 41 ± 15 nM; in series [4] (3.0 hr post 10 mg/kg oral dose, male Sprague-Dawley rats, using rat fu,brain 0.043, mean ± SD) it was 22 ± 5 nM. Besides, the concentration at 1 h in series [4] (rat, brain, 1.0 hr post 10 mg/kg oral dose, mean ± SD, read-out: Total brain conc. (Ctotal,brain)) is 962 ± 341 nM; in series [4] (rat, brain, 1.0 hr post 10 mg/kg oral dose, using rat fu,brain 0.043, mean ± SD, read-out: Unbound brain conc. (Cu,brain)), 41 ± 15 nM; in series [4] (rat, plasma, 1.0 hr post 10 mg/kg oral dose, mean ± SD, read-out: Total plasma conc. (Ctotal,plasma)), 655 ± 183 nM; in series [4] (rat, plasma, 1.0 hr post 10 mg/kg oral dose, using rat fu,plasma 0.071, mean ± SD, read-out: Unbound plasma conc. (Cu,plasma)), 47 ± 13 nM. The concentration at 3 h in series [4] (rat, brain, 3.0 hr post 10 mg/kg oral dose, mean ± SD, read-out: Total brain conc. (Ctotal,brain)) was 515 ± 111 nM; in series [4] (rat, brain, 3.0 hr post 10 mg/kg oral dose, using rat fu,brain 0.043, mean ± SD, read-out: Unbound brain conc. (Cu,brain)), 22 ± 5 nM; in series [4] (rat, plasma, 3.0 hr post 10 mg/kg oral dose, mean ± SD, read-out: Total plasma conc. (Ctotal,plasma)), 368 ± 127 nM; in series [4] (rat, plasma, 3.0 hr post 10 mg/kg oral dose, using rat fu,plasma 0.071, mean ± SD, read-out: Unbound plasma conc. (Cu,plasma)), 26 ± 9 nM. For the same compound, the Kp uu at 1 h in series [4] (rat, brain/plasma, 1.0 hr post 10 mg/kg oral dose, male Sprague-Dawley rats, mean ± SD) was found to be 0.89 ± 0.17. In addition, the Kp uu at 3 h in series [4] (rat, brain/plasma, 3.0 hr post 10 mg/kg oral dose, male Sprague-Dawley rats, mean ± SD) was found to be 0.93 ± 0.43.

These data come from US10336726B2, “3-methyl-pyrrolidine-2,5-dione derivatives useful as CGRP receptor antagonists” (Eli Lilly and Company, priority 2017, dated 2019).
